According to patent US20110098283A1, “3-CINNOLINECARBOXAMIDE DERIVATIVES AND THEIR USE FOR TREATING CANCER” (ASTRAZENECA AB, priority 2007, published 2011):
pIC50: −log10 of the molar value.

Target: T1, CSF-1R (His-tagged kinase domain, amino acids 568-912) (Homo sapiens, UniProt P07333)
T1 construct: The His-tagged kinase domain of CSF-1R (i.e., amino acids 568-912, GeneBank ID NM_005211); His; made in house; host or cells: baculovirus infected SF+Express insect cells
T1 sequence (P07333 568-912): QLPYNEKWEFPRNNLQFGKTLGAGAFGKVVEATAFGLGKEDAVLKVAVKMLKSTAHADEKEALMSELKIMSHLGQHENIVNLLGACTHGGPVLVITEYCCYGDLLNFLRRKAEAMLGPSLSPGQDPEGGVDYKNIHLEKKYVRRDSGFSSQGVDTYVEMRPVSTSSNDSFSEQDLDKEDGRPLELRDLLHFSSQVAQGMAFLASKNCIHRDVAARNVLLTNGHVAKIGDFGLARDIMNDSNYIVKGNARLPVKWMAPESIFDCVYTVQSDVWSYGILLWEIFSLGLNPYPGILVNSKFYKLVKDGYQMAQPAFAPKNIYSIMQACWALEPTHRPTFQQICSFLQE
Assay: Assay 2: CSF1R in-vitro AlphaScreen Assay
Format: biochemical
Details: phosphorylation of pEY substrate; 0.46 nM CSF-1R, 12 mM ATP in mix
Method: Assay 2: CSF1R in-vitro AlphaScreen Assay
Activity of purified CSF-1R was determined in-vitro using an Amplified Luminescent Proximity Homogeneous Assay (ALPHA) (Perkin Elmer, Mass.), which measures phosphorylation of CSF-1R substrate, biotinylated poly-glutamine-tyrosine peptide (pEY-HTRF CisBio 61GT0BLD), as described below. The His-tagged kinase domain of CSF-1R (i e, amino acids 568-912, GeneBank ID NM_005211) was purified from baculovirus infected SF+Express insect cells (1.4×10^6 cells/ml), French pressed and chromatographed through subsequent QIAgen Ni-NTA, Superflow Mono Q HR 10/10, and Superdex 200 SEC columns.
The phosphorylation of the CSF-1R substrate in the presence and absence of the compound of interest was determined. Briefly, 5 ul of Enzyme/Substrate/adenosine triphosphate (ATP) mix consisting of 0.46 nM of purified CSF-1R, 12 nM pEY substrate, and 12 mM ATP in 1.2× buffer was preincubated with 2 ul of compound for 20 minutes at 25° C. Reactions were initiated with 5 ul of Metal mix consisting of 24 mM MgCl2 in 1.2× buffer and incubated at 25° C. for 90 minutes and reactions were stopped by addition of 5 ul of Detection mix consisting of 20 mM HEPES, 102 mM ethylenediamine tetraacetic acid, 1.65 mg/ml BSA, 136 mM NaCl, 40 ug/ml Streptavidin donor beads (Perkin Elmer, Mass., Catalog #6760002), and 40 ug/ml phosphotyrosine-specific antibody coated acceptor beads (Perkin Elmer, Mass., Catalog #6760620). Plates were incubated at 25° C. for 18 hours in the dark. Phosphorylated substrate was detected by an EnVision plate reader (Perkin Elmer) 680 nm excitation, 520-620 nm emission. Data was graphed and IC50s calculated using Excel Fit (Microsoft).

SMILES | pIC50
COc1cc2nnc(C(N)=O)c(Nc3ccc(C)cc3F)c2cc1C1=CCN(C(C)C)CC1 [Example 29, 4-[(2-Fluoro-4-methylphenyl)amino]-6-(1-isopropyl-1,2,3,6-tetrahydropyridin-4-yl)-7-methoxycinnoline-3-carboxamide] | 8.15
COc1cc2nnc(C(N)=O)c(Nc3ccc(C)cc3F)c2cc1C1=CCN(CCO)CC1 [Example 34, 4-[(2-Fluoro-4-methylphenyl)amino]-6-[1-(2-hydroxyethyl)-1,2,3,6-tetrahydropyridin-4-yl]-7-methoxycinnoline-3-carboxamide] | 8.30
COc1cc2nnc(C(N)=O)c(Nc3ccc(C)cc3F)c2cc1N1C[C@@H](C)O[C@@H](C)C1 [Example 37, 6-[(2R,6S)-2,6-Dimethylmorpholin-4-yl]-4-[(2-fluoro-4-methylphenyl)amino]-7-methoxycinnoline-3-carboxamide] | 7.15
COc1cc2nnc(C(N)=O)c(Nc3ccc(C)cc3F)c2cc1N1CCN2CCCC2C1 (centres unmarked) [Example 33, 4-[(2-Fluoro-4-methylphenyl)amino]-6-(hexahydropyrrolo[1,2-a]pyrazin-2(1H)-yl)-7-methoxycinnoline-3-carboxamide] | 7.92
COc1cc2nnc(C(N)=O)c(Nc3ccc(C)cc3F)c2cc1N1CCN(CC(F)(F)F)CC1 [Example 42, 4-[(2-Fluoro-4-methylphenyl)amino]-7-methoxy-6-[4-(2,2,2-trifluoroethyl)piperazin-1-yl]cinnoline-3-carboxamide] | 8.15
COc1cc2nnc(C(N)=O)c(Nc3ccc(C)cc3F)c2cc1N1CCn2cnnc2C1 [Example 31, 6-(5,6-Dihydro[1,2,4]triazolo[4,3-a]pyrazin-7(8H)-yl)-4-[(2-fluoro-4-methylphenyl)amino]-7-methoxycinnoline-3-carboxamide] | 7.89
COc1cc2nnc(C(N)=O)c(Nc3cccc(Cl)c3F)c2cc1N1C[C@@H](C)N[C@@H](C)C1 [Example 45, 4-[(3-Chloro-2-fluorophenyl)amino]-6-[(3R,5S)-3,5-dimethylpiperazin-1-yl]-7-methoxycinnoline-3-carboxamide] | 8.22
COc1cc2nnc(C(N)=O)c(Nc3ccc(C)cc3F)c2cc1N1C[C@@H](C)N[C@@H](C)C1 [Example 36, 6-[(3R,5S)-3,5-Dimethylpiperazin-1-yl]-4-[(2-fluoro-4-methylphenyl)amino]-7-methoxycinnoline-3-carboxamide] | > 8.52
